# Tests used:
# [1] = system: MCP-1-induced signaling in human monocytes (THP-1 cell line); assay: MCP-1-induced signaling, western blot; assay type: cell-based; conditions: 20 min pretreatment, 50 ng/ml MCP1, THP-1
# Procedure: THP-1 cells (10^6/ml) were pretreated for 20 min with VB-201 or VB-701 at the doses indicated in FIG. 4, or with solvent, followed by activation with 50 ng/ml MCP1, or were untreated (“Unt”). Cells were washed and resuspended in lysis buffer containing 1:100 dithiothreitol (DTT), phosphatase and protease inhibitors (Thermo Scientific). Samples were loaded onto a precast Criterion TGX gel (Bio-Rad, Hemel Hempstead, UK) and transferred onto nitrocellulose membrane. Blots were blocked with 5% milk or BSA in Tris buffered saline and Tween 20 (TBST) for 1 h, followed by incubation with primary and secondary antibodies. Membranes were developed using an ECL kit (Thermo Scientific). The following antibodies were used for immunoblotting:
# Primary antibodies: p-ERK1/2 (Cat. No. M8159; 1:10000) was purchased from Sigma (Israel). p-AKT (Cat. No. 4060; 1:1000) was purchased from Cell Signaling Technology (Danvers, Mass.). αTubulin served as a loading control and was purchased from Sigma (Israel).
# Secondary antibodies: HRP donkey anti-rabbit (1:5000) and HRP goat anti-mouse (1:3000) were from Jackson ImmunoResearch (West Grove, Pa., USA). HRP donkey anti-goat (1:5000) was from Santa Cruz Biotechnology.
# [2] = system: human monocytes (primary CD14+); assay: Chemokine-induced cell migration trans-well assay; assay type: cell-based; conditions: RANTES 100 ng/ml and MCP-1 50 ng/ml, 2-4 hours, FACS count
# Procedure: Venous blood samples were obtained from healthy male donors in compliance with the Institutional Review Board at the Sheba Medical Center, Ramat Gan, Israel. PBMCs were isolated on Ficoll-Paque PLUS (GE Healthcare, Uppsala, Sweden) using 50 ml Leucosep tubes (Greiner Bio-One, Frickenhausen, Germany). Cells were washed in PBS (Kibbutz Beit Haemek, Israel) and incubated at 4° C. for 15 minutes in a buffer containing PBS and 0.5% bovine serum albumin (BSA) with human CD14 microbeads (Miltenyi Biotec, Bergisch Gladbach, Germany).
# Cells (10^6/ml) were pretreated for 20 min with VB-201 or VB-701 at the doses indicated in FIG. 5, or with solvent (Sol).
# To test for chemokine-induced cell migration, RANTES (100 ng/ml; Cat. No. 300-06, PeproTech, Israel) and MCP-1 (50 ng/ml; Cat. No. 300-04, PeproTech, Israel) were dissolved in RPMI-1640 medium supplemented with 0.5% fetal bovine serum (FBS) and placed at the lower chamber of QCM 24-well, […], migration assay plates (Corning-Costar, Corning, N.Y.). Cells (3×10^5) were seeded in the upper chamber and incubated for 2-4 hours. Subsequently, the number of cells which migrated to the lower compartment was determined by fluorescence-activated cell sorting (FACS).
# [3] = system: LPS (TLR4)-stimulated human monocytes (primary CD14+); assay: IL-12/23p40 ELISA, LPS (TLR4)-stimulated monocytes; assay type: cell-based; conditions: 1 hour pretreatment, 24 hour 100 ng/ml LPS, ELISA of supernatant
# Procedure: (§1) Human monocytes were obtained as described in Example 9 and FIG. 9A-9B. Human monocytes were seeded (10^6/ml) and pretreated for 1 hour with VB-201, VB-701 or VB-702, followed by 24 hour activation with 100 ng/ml LPS from Escherichia coli strain 055:B5 (Sigma, Israel) (FIG. 9A) or 300 ng/ml Pam3CSK4 (InvivoGen, San Diego, Calif., USA) (FIG. 9B) to induce cytokine production. IL-12/23p40 concentration in the supernatant was then measured by ELISA (R&D systems, Cat. No. DY1240). Cells activated with solvent (0.5% ethanol in PBS) were used as a control.
# [4] = system: Pam3CSK4 (TLR2)-stimulated human monocytes (primary CD14+); assay: IL-12/23p40 ELISA, Pam3CSK4 (TLR2)-stimulated monocytes; assay type: cell-based; conditions: 1 hour pretreatment, 24 hour 300 ng/ml Pam3CSK4, ELISA of supernatant
# Procedure: as §1
# NASH-induced mice = assay: NASH and liver fibrosis mouse model (STZ + HFD), liver histology; assay type: in vivo
# Procedure: (§2) Neonatal male mice exposed to low-dose streptozotocin (STZ) develop liver steatosis with diabetes. Continuous high fat diet (HFD) increases lobular inflammation with foam cell-like macrophages, showing nonalcoholic steatohepatitis (NASH) pathology. NASH was induced in 40 male mice by a single subcutaneous injection of 200 μg per mouse of STZ two days after birth and feeding HFD [57 kcal % fat]) from four weeks of age. Vehicle, VB-703 (4 mg/kg), or telmisartan (10 mg/kg) as positive control, were administered once daily for three weeks, starting from six weeks of age. Mice were sacrificed at nine weeks of age.
# Liver pathology was used to determine the effect of VB-703 on liver inflammation and fibrosis. Histology slides were stained with hematoxylin/eosin (H&E) to assess inflammation. The inflammation score was determined as follows:
# Histology slides were stained with Sirius red to determine collagen content as a marker for the extent of fibrosis.
# [5] = system: livers taken from NASH-induced mice; assay: Q-PCR of inflammation mediators in livers of NASH-induced mice; assay type: in vivo; conditions: VB-703 4 mg/kg, Q-PCR normalized to GAPDH
# Procedure: as §2
# RNA was prepared from livers from normal mice and NASH-induced mice treated with vehicle, VB-703, or telmisartan, using RNeasy mini kit (Qiagen). For cDNA preparation, 2 μg of RNA was combined with qScript reaction mix and qScript Reverse Transcriptase (Quanta BioSciences) for 5 min at 22° C. and then for 30 min at 42° C. Reaction was ended by incubation for an additional 5 min at 85° C. All real time PCR reactions were performed using the 7300 Real Time PCR System (Applied Biosystems). Q-PCR with mouse ready set of probe with primer was used for IL-1β, IL-12/23p40 and MCP-1 (Applied Biosystems). GAPDH was used to normalize RNA levels.
Structure (SMILES),formation of p-AKT and p-ERK induced by MCP1 [1],chemokine-induced migration of human monocytes [2],"IL-12p40 levels, LPS (TLR4)-stimulated [3]","IL-12p40 levels, Pam3CSK4 (TLR2)-stimulated [4]",steatosis (NASH-induced mice; VB-703 4 mg/kg once daily for three weeks),"decrease of liver fibrosis compared to vehicle treated mice (Sirius red) (NASH-induced mice; VB-703 4 mg/kg, telmisartan 10 mg/kg, once daily for three weeks)",expression of IL-10 in livers [5],expression of IL-12/23p40 in livers [5],expression of the chemokine MCP-1 in livers [5]
"CCCCCCCCCCCCCCCCOCC(COP(=O)([O-])OCC[N+](C)(C)C)OCCCCC(=O)O (stereo not drawn) [VB-201, 1-hexadecyl-2-(4′-carboxy)butyl-glycero-3-phosphocholine, reference compound]",inhibit,inhibit,inhibit,inhibit,–,–,–,–,–
"CCCCCCCCCCC(CCCCCCCC)COC[C@H](COP(=O)([O-])OCC[n+]1ccccc1)OCCCCC(=O)O (stereo partly drawn) [VB-703, (R)-1-(2′-octyl)dodecyl-2-(4′-carboxy)butyl-sn-glycero-3-phosphoric acid pyridiniumethyl ester]",–,–,–,–,did not appear to significantly alter,58%,significantly inhibited,significantly inhibited,significantly inhibited

# From US10464957B2, “Oxidized lipids and methods of use thereof” (Vascular Biogenics Ltd., priority 2014, dated 2019)
